# From paper PMC5065625, “Structure-mechanism-based engineering of chemical regulators targeting distinct pathological factors in Alzheimer's disease” (Nature Communications, 2016)
# Key:
# [1] = Parallel artificial membrane permeability assay adapted for BBB (PAMPA-BBB); format: in vitro ADME; conditions: 25 μM, pH 7.4, 4 h
# Experimental: PAMPA-BBB experiments were conducted using the PAMPA Explorer kit (pION Inc., Billerica, MA, USA) using previously reported protocols. Compounds (25 μM, 200 μl) in pH 7.4 Prisma HT buffer (pION) were added to the wells of a donor plate (number of replicates=12). The polyvinylidene fluoride (PVDF, […]) filter membrane on the acceptor plate was coated with BBB-1 lipid formulation (5 μl, pION). The acceptor plate was placed on top of the donor plate. Brain sink buffer (BSB, 200 μl, pION) was added to each well of the acceptor plate and was incubated for 4 h at ambient temperature without stirring. UV–vis spectra of the solutions in the reference, acceptor, and donor plates were measured using a microplate reader. The PAMPA Explorer software v. 3.5 (pION) was used to calculate the −logPe values for compounds. CNS±designations were assigned by comparison with compounds that were identified in previous reports.
# [2] = Stability in solution (UV–vis, ESI–MS) in the presence of Cu(II); format: physicochemical; conditions: Cu 25 μM; for k, + Cu(II) (rate of decay of the absorbance peak) / t1/2, + Cu(II) / half-life at 50 μM: HEPES pH 7.4, 37 °C; for half-life at 50 μM: HEPES buffer with CuCl2, pH 7.4, compound 50 μM, read-out: t1/2, + Cu(II)
# Experimental: The stability of 1–4 (50 μM) in the absence and presence of CuCl2 (25 μM) was monitored every 10 min using UV–vis for 5 h in buffer ([…], pH 7.4, […]; 1% DMSO) at 37 °C. The resulting spectra were corrected for baseline shifts at 800 nm and the half-life and rate of decay of the absorbance at 250, 385 and 400 nm for 4, [Cu(II)+1], and [Cu(II)+3], respectively, was calculated using the first-order exponential decay function as implemented in Origin 9.1 (OrginLab Corp., Northampton, MA, USA). Additionally, the species present were identified using ESI–MS. Samples containing 1–4 (50 μM) with or without CuCl2 (25 μM) were incubated in ddH2O (1% DMSO) at 37 °C for the selected time points before being freshly frozen using liquid nitrogen and stored at −80 °C until they were thawed immediately before measurement.
# [3] = system: cationic organic radical of ABTS; assay: Trolox equivalent antioxidant capacity (TEAC) assay in M17 cell lysates; format: biochemical, human; conditions: relative to Trolox
# Experimental: The assay employing M17 cell lysates was conducted following the protocol of the antioxidant assay kit purchased from Cayman Chemical Company (Ann Arbor, MI, USA) with minor modifications. For the antioxidant assay using cell lysates, cells were seeded in a six-well plate and grown to ∼80–90% confluence. Cell lysates were prepared following a previously reported method with modifications. M17 cells were washed once with cold PBS (pH 7.4, GIBCO) and harvested by gently pipetting off adherent cells with cold PBS. The cell pellet was generated by centrifugation (2,000g for 10 min at 4 °C). This cell pellet was sonicated on ice (5 s pulses, three times with 20 s intervals between each pulse) in 2 ml of cold Assay Buffer (5 mM potassium phosphate, pH 7.4, containing 0.9% NaCl and 0.1% glucose). The cell lysates were centrifuged at 5,000g for 10 min at 4 °C. The supernatant was removed and stored on ice until use. For standard and samples in 96-well plates, 10 μl of the supernatant of cell lysates was delivered followed by addition of compound, metmyoglobin, ABTS and H2O2 in order. After 5 min incubation at room temperature on a shaker, absorbance values at 750 nm were recorded. The antioxidant concentration was calculated according to the measured absorbance (% inhibition=100 × (A0 – A)/A0, where A0 is absorbance of the supernatant of cell lysates). The measurements were conducted in triplicate.
Compound,−logPe [1],"Stability of the complex with Cu(II) ([2]; compound 50 μM, 5 h)","k, + Cu(II) (rate of decay of the absorbance peak) ([2]; compound 50 μM)","t1/2, + Cu(II) ([2]; compound 50 μM)",Free organic radical scavenging ability (TEAC) [3],half-life at 50 μM [2]
"COc1cc(NCc2ccccn2)cc(OC)c1 [compound 2, 3,5-dimethoxy-N-(pyridin-2-ylmethyl)aniline]",4.2(8),without any further transformations over the course of 5 h,too slow to accurately measure the rate,No noticeable spectral changes were observed over 5 h,,
"CN(C)c1ccc(NCc2ccc[nH]2)cc1 [compound 4, N^1-((1H-pyrrol-2-yl)methyl)-N^4,N^4-dimethylbenzene-1,4-diamine]",4.9(0),,too rapidly to measure,,greater capacity than 2,< 1 min
"CN(C)c1ccc(NCc2ccc3ccccc3n2)cc1 [compound 3, N^1,N^1-dimethyl-N^4-(quinolin-2-ylmethyl)benzene-1,4-diamine]",4.2(2),,0.013 ± 0.001 min⁻¹,~50 min,greater capacity than 2,53 ± 3 min
"Nc1ccc(NCc2ccccn2)cc1 [compound 1, N^1-(pyridin-2-ylmethyl)benzene-1,4-diamine]",5.0(1),,0.09 ± 0.03 min⁻¹,~5 min,greater capacity than 2,8 ± 3 min
